Measured values reported in patent US8101408B2, “Insecticidal extract from legume plants and method of preparing the same” (Her Majesty the Queen in right of Canada, as represented by …, priority 2005, dated 2012).

Assays:
[1] = Stability in solution or on storage judged by TLC, HPLC and mass spectrometry; type: physicochemical
Description: Samples containing soyasaponin VI, freshly prepared in 80% ethanol, could be shown to contain intact soyasaponin VI by HPLC/MS with electrospray ionization, by the appearance of the strong quasimolecular ion at mass1069. However, the samples were always contaminated with soyasaponin I (quasimolecular ion at 943).
The peptide of mass 3788 was of particular interest because its molecular weight was the same as that of PA1b described by Higgins et al. (1986). During RPC, the 3788 peptide was found in highest concentrations in the end fractions from silica gel flash chromatography of C8 with chloroform-water-methanol and then methanol as eluent (system 1 isolate).

[2] = test system: sugar taste receptor cells of the blowfly; conditions: Ahamed et al., 2000; cited from earlier work
Sitophilus oryzae = assay: Flour disk antifeedant bioassay with rice weevils (food consumption as % of control; EC50/EC90 for feeding reduction); type: in vivo; conditions: RPC isolate; 0.8 mg dose, disks from one-half the usual amount of flour (100 mg)
Description: The bioactivity of separated fractions was determined primarily by a flour disk antifeedant bioassay with the rice weevil (Sitophilus oryzae), an insect pest of stored products.
A glass column (1.2 cm internal diameter×20.5 cm length) equipped with a solvent reservoir and stopcock was filled with silica gel (Mallinckrodt SilicAR cc-7) using a slurry of the silica gel in chloroform (Merck OmniSolv containing 1% ethanol). The top of the bed was protected with sea sand. C8 powder (130 mg) was applied to the column, after mixing with silica gel, as a 1.25 cm band. Using a slight positive air pressure to maintain reasonable flow rates, the column was eluted with chloroform (75 ml) then with 75 ml volumes of various mixtures of chloroform and methanol followed by pure methanol (Table 1). The column was eluted with more methanol (75 ml) and finally with two additional volumes of methanol (250 ml each). […] A final evaporation was performed with a Savant apparatus (43° C.). The tubes were re-weighed, capped and transferred to the bioassay laboratory. Each sample was dissolved in 70% ethanol (0.5 ml) and 0.2 ml of that solution was added to the wheat flour (200 mg) for preparation of the disks. […] Control disks were prepared with 0.2 ml of 70% ethanol.
A test insecticidal compound is incorporated into flour disks. […] A typical dose in many of the above examples is 1.6 milligram/200 milligram flour. Wheat flour is typically used.
Reduction in feeding activity elicited by the experimental samples was compared to food consumption of untreated controls, obtained by weighing the disks before and after exposure to insects and expressed as percent feeding relative to the control. Bioassay can also include insecticidal measurements (lethality with rice weevil).
Flour disks (ca. 0.1 g/disk) were weighed before and after exposure to the insects. […] Antifeedant activity was determined by expressing consumption of treated disks as a percentage of control disks (70% ethanol). Positive controls using the same C8 extract were run with each bioassay.
The estimate and confidence limits are the values of X where the line Y=Yo crosses the regression line and its upper and lower confidence curves, respectively. The formulae can be expressed in terms of outputs from the regression analysis. Let a and b be the estimates of the intercept and slope, MSE the mean square error, n the number of observations, t the (2-sided) critical value of t with n−2 degrees of freedom, V(b) the variance (standard error squared) of b and D=b^2−t^2V(b)). Then the estimate of X is Xo=(Yo−a)/b and the confidence limits for X are X0+t^2V(b)(Y0− Y)/bD±H where H^2=t^2└D·MSE/n+V(b)(Y0− Y)^2┘/D^2. The interval is not symmetric about Xo. […]

CC1=C(O)C(=O)C[C@H](O[C@@H]2CC(C)(C)C[C@H]3C4=CC[C@@H]5[C@@]6(C)CC[C@H](O[C@@H]7O[C@H](C(=O)O)[C@@H](O)[C@H](O)[C@H]7O[C@@H]7O[C@H](CO)[C@H](O)[C@H](O)[C@H]7O[C@@H]7O[C@@H](C)[C@H](O)[C@@H](O)[C@H]7O)[C@](C)(CO)[C@@H]6CC[C@@]5(C)[C@]4(C)CC[C@@]23C)O1 [Soyasaponin VI, soyasaponin VI]
stability (in words) [1]: somewhat unstable in solution
effect on sugar taste receptor cells (in words) [2]: stimulate the sugar taste receptor cells
food consumption in the rice weevil bioassay (Sitophilus oryzae): 80%
